Measured values from ChEMBL document CHEMBL6121047, “Design, Synthesis, and Evaluation of Selective PDE4 Inhibitors for the Therapy of Pulmonary Injury” (J Med Chem, 2025).
The source made the active and inactive calls. The calls are words filed in the database; no cut-off is given here.

Legend:
RAW264.7 [1] = experiment: cells; settings: Mus musculus
[2] = Oral bioavailability in Sprague-Dawley rat at 10 mg/kg measured upto 24 hrs by LC-MS/MS analysis; assay type: ADME, organism-based; settings: in vivo
Mus musculus [3] = experiment: Anti-inflammatory activity against LPS-induced acute lung injury male BALB/c mouse model assessed as relaxation of alveolar in lung at 8 to 32 mg/kg administered once a day via gavage for 7 days followed by LPS stimulation and measured after 24 hrs by H and E staining based microscopic analysis; assay type: functional, organism-based; settings: dose 8-32 mg/kg, time 192.0 hrs
[4] = Acute toxicity in Sprague-Dawley rat assessed as pathological changes in spleen at 1 g/Kg, po administered via gavage by H and E staining based analysis; assay type: organism-based; settings: in vivo, 1000 mg/kg
Mus musculus [5] = experiment: Anti-inflammatory activity against cigarette-smoke/LPS-induced COPD male C57BL/6 mouse model assessed as reduction in bronchiole thickness at 5 mg/kg pretreated with cigarette smoke exposure for 21 weeks with subsequent LPS induction twice on the first and 15th day followed by compound administration every day via gavage for 4 weeks by H and E staining based microscopic analysis; assay type: functional, organism-based
BEAS-2B = experiment: Anti-inflammatory activity in LPS-induced human BEAS-2B cells assessed as inhibition of TNF-alpha secretion level at 10 uM preincubated with compound for 1 hr followed by LPS addition and measured after 24 hrs by ELISA; assay type: functional, cell-based; settings: time 25.0 hrs
[6] = Toxicity in female Beagle dog assessed as drug tolerance at 1 to 3 mg/kg, po administered once via gavage and measured within 24 hrs; assay type: organism-based, Canis lupus familiaris; settings: in vivo, dose 1-3 mg/kg
Mus musculus [7] = experiment: Anti-inflammatory activity against LPS-induced acute lung injury male BALB/c mouse model assessed as reduction in TNF-alpha level in BALF at 8 to 32 mg/kg administered once a day via gavage for 7 days followed by LPS stimulation and measured after 24 hrs; assay type: functional, organism-based; settings: dose 8-32 mg/kg, time 192.0 hrs
[8] = AUC (0 to t) in Sprague-Dawley rat at 5 mg/kg, iv measured upto 24 hrs by LC-MS/MS analysis; assay type: ADME, organism-based; settings: in vivo
[9] = biological target: Voltage-gated inwardly rectifying potassium channel KCNH2 (Homo sapiens, UniProt Q12809); experiment: Inhibition of hERG expressed in HEK293T cells; assay type: toxicity, cell-based
[10] = Initial plasma concentration in Sprague-Dawley rat at 5 mg/kg, iv measured upto 24 hrs by LC-MS/MS analysis; assay type: ADME, organism-based
RAW264.7 [11] = experiment: Anti-inflammatory activity in LPS-induced mouse RAW264.7 cells assessed as decrease in p38 MAPK protein level by Western blotting analysis; assay type: functional, cell-based
[12] = Acute toxicity in Sprague-Dawley rat assessed as pathological changes in kidney at 1 g/Kg, po administered via gavage by H and E staining based analysis; assay type: organism-based; settings: in vivo, 1000 mg/kg
[13] = AUC (0 to t) in Sprague-Dawley rat at 10 mg/kg, po measured upto 24 hrs by LC-MS/MS analysis; assay type: ADME, organism-based; settings: in vivo
Mus musculus [14] = experiment: Anti-inflammatory activity against LPS-induced acute lung injury male BALB/c mouse model assessed as reduction in total cell counts in BALF at 8 to 32 mg/kg administered once a day via gavage for 7 days followed by LPS stimulation and measured after 24 hrs; assay type: functional, organism-based; settings: dose 8-32 mg/kg, time 192.0 hrs
[15] = Acute toxicity in Sprague-Dawley rat assessed as effect on apparent liver coefficient change at 1 g/Kg, po administered via gavage; assay type: organism-based; settings: in vivo, 1000 mg/kg
[16] = biological target: 3',5'-cyclic-AMP phosphodiesterase 4B (Homo sapiens, UniProt Q07343); experiment: Inhibition of PDE4B (unknown origin) using FAM-cAMP as substrate preincubated with compound for compound for 15 mins followed by substrate addition and measured after 30 mins by Envision multilabel reader analysis
[17] = Acute toxicity in Sprague-Dawley rat assessed as pathological changes in liver at 1 g/Kg, po administered via gavage by H and E staining based analysis; assay type: organism-based; settings: in vivo, 1000 mg/kg
[18] = Acute toxicity in Sprague-Dawley rat assessed as pathological changes in heart at 1 g/Kg, po administered via gavage by H and E staining based analysis; assay type: organism-based; settings: in vivo, 1000 mg/kg
RAW264.7 [19] = experiment: Anti-inflammatory activity against cigarette-smoke/LPS-induced mouse RAW264.7 cells assessed as inhibition of phosphorylated p38 MAPK protein expression by Western blotting analysis; assay type: functional, cell-based
Mus musculus [20] = experiment: Anti-inflammatory activity against LPS-induced acute lung injury male BALB/c mouse model assessed as reduction in IL-6 level in BALF at 8 to 32 mg/kg administered once a day via gavage for 7 days followed by LPS stimulation and measured after 24 hrs; assay type: functional, organism-based; settings: dose 8-32 mg/kg, time 192.0 hrs
[21] = Toxicity in female Beagle dog assessed as side effects at 1 to 3 mg/kg, po administered once via gavage and measured within 24 hrs; assay type: organism-based, Canis lupus familiaris; settings: in vivo, dose 1-3 mg/kg
[22] = Metabolic stability in rat liver microsomes assessed as half life incubated for 4 hrs in presence of NADPH by LC-MS analysis; assay type: ADME, Microsome
[23] = Acute toxicity in Sprague-Dawley rat assessed as effect on apparent lung coefficient change at 1 g/Kg, po administered via gavage; assay type: organism-based; settings: in vivo, 1000 mg/kg
Mus musculus [24] = experiment: Anti-inflammatory activity against LPS-induced acute lung injury male BALB/c mouse model assessed as restoration of alveolar septa in lung at 8 to 32 mg/kg administered once a day via gavage for 7 days followed by LPS stimulation and measured after 24 hrs by H and E staining based analysis; assay type: functional, organism-based; settings: dose 8-32 mg/kg, time 192.0 hrs
Mus musculus [25] = experiment: Antitussive activity in male BALB/c mouse model assessed as reduction in cough frequency at 32 mg/kg administered every day via gavage for 7 days at 1 hrs post last dose and measured within 3 min; assay type: functional, organism-based; settings: time 169.05 hrs
Mus musculus [26] = experiment: Enhancement of sputum secretion in male BALB/c mouse model assessed as increase in phenol red secretion in BALF at 4 to 32 mg/kg administered every day via gavage for 7 days followed by phenol red administration at 1 hrs post last dose and measured after 30 mins; assay type: functional, organism-based; settings: dose 4-32 mg/kg, time 169.5 hrs
Mus musculus [27] = experiment: Anti-inflammatory activity against cigarette-smoke/LPS-induced COPD male C57BL/6 mouse model assessed as reduction in MMP9 level in BALF at 5 mg/kg pretreated with cigarette smoke exposure for 21 weeks with subsequent LPS induction twice on the first and 15th day followed by compound administration every day via gavage for 4 weeks; assay type: functional, organism-based
Mus musculus [28] = experiment: Anti-inflammatory activity against LPS-induced acute lung injury male BALB/c mouse model assessed as enlarged bronchiole tubes in lung at 8 to 32 mg/kg administered once a day via gavage for 7 days followed by LPS stimulation and measured after 24 hrs by H and E staining based microscopic analysis; assay type: functional, organism-based; settings: dose 8-32 mg/kg, time 192.0 hrs
RAW264.7 [29] = experiment: Anti-inflammatory activity in LPS-induced mouse RAW264.7 cells assessed as decrease in p-p38 MAPK protein level by Western blotting analysis; assay type: functional, cell-based
[30] = Half life in Sprague-Dawley rat at 5 mg/kg, iv measured upto 24 hrs by LC-MS/MS analysis; assay type: ADME, organism-based; settings: in vivo
Mus musculus [31] = experiment: Anti-inflammatory activity against cigarette-smoke/LPS-induced COPD male C57BL/6 mouse model assessed as reduction in IL-6 level in BALF at 5 mg/kg pretreated with cigarette smoke exposure for 21 weeks with subsequent LPS induction twice on the first and 15th day followed by compound administration every day via gavage for 4 weeks; assay type: functional, organism-based
[32] = Metabolic stability in mouse liver microsomes assessed as half life incubated for 4 hrs in presence of NADPH by LC-MS analysis; assay type: ADME, Microsome
[33] = Apparent volume of distribution in Sprague-Dawley rat at 5 mg/kg, iv measured upto 24 hrs by LC-MS/MS analysis; assay type: ADME, organism-based; settings: in vivo, read-out: Vz

Sequence of Voltage-gated inwardly rectifying potassium channel KCNH2 (Q12809 whole entry): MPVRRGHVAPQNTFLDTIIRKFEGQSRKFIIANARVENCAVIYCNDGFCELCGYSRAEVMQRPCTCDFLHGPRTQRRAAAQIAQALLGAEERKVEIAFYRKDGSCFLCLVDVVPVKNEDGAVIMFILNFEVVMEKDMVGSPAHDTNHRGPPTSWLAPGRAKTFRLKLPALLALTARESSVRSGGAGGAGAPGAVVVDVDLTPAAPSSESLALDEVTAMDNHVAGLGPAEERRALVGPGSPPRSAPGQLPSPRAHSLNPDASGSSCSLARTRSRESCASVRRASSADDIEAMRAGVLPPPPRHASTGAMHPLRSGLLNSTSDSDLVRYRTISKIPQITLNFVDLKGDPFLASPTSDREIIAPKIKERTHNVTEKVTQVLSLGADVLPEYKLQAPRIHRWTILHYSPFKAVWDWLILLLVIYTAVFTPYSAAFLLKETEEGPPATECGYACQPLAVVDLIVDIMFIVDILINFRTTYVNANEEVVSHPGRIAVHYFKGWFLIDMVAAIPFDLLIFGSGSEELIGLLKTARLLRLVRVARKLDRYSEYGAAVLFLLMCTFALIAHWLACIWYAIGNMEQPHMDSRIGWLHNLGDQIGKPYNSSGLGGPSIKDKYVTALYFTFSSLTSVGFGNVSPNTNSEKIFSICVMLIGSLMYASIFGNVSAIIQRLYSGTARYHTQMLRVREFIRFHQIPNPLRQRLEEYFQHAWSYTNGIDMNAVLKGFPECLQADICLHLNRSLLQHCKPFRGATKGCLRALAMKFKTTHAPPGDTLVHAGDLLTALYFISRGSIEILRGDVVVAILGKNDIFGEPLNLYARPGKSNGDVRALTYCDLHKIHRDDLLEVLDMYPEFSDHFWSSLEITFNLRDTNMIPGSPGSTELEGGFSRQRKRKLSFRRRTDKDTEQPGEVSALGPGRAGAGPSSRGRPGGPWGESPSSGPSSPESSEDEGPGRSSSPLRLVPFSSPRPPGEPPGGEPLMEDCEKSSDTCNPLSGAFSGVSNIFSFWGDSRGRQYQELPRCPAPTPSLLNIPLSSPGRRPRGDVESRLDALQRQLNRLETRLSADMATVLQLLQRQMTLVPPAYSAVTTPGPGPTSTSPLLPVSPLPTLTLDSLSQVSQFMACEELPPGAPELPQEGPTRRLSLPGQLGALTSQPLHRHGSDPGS
Sequence of 3',5'-cyclic-AMP phosphodiesterase 4B (Q07343 whole entry): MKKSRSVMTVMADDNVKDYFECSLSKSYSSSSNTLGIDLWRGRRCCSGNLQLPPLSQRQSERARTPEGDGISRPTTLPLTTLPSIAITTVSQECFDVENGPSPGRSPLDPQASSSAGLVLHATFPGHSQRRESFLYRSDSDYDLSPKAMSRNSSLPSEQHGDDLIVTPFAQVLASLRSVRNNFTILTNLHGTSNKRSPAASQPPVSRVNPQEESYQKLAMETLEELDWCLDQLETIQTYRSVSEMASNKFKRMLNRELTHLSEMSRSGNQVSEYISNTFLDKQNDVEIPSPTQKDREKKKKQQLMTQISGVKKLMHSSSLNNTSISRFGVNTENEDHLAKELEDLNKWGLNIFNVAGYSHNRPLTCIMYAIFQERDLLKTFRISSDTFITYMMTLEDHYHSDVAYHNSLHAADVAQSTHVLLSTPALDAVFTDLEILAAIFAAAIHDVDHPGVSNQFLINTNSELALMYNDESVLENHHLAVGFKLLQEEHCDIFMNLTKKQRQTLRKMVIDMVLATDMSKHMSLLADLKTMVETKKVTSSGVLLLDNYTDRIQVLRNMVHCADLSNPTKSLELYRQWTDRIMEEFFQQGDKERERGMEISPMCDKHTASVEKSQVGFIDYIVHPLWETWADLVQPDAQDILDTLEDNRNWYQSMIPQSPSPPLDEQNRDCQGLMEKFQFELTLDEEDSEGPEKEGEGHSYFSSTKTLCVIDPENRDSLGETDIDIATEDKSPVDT

For O=C(Nc1nccs1)c1cccc2[nH]c(-c3ccc(OC(F)F)c(OCC4CC4)c3)nc12, the IC50 (RAW264.7 [1]) was 30.1 µM, the bioavailability [2] was 4.59% and the Activity (Mus musculus [3]) was “Active”. For the same molecule, the Activity [4] was “Non-toxic”, the Activity (Mus musculus [5]) was “Active” and the Activity (BEAS-2B) was “Active”. For the same molecule, the Activity [6] was “Non-toxic”, the Activity (Mus musculus [7]) was “Active” and the AUC(0-t) at 24 h [8] was 23200 ng·h/mL. The IC50 [9] was > 30 µM, the C0 at 24 h [10] was 38100 ng/mL and the Activity (RAW264.7 [11]) was “Active”. The Activity [12] was “Non-toxic”, the AUC(0-t) at 24 h [13] was 2130 ng·h/mL and the Activity (Mus musculus [14]) was “Active”. For the same molecule, the Activity [15] was “Non-toxic”, the IC50 [16] was 0.0488 µM and the Activity [17] was “Non-toxic”. The Activity [18] was “Non-toxic”, the Activity (RAW264.7 [19]) was “Active” and the Activity (Mus musculus [20]) was “Active”. The Activity [21] was “Non-toxic”, the half-life [22] was 1.03 h and the Activity [23] was “Non-toxic”. For the same molecule, the Activity (Mus musculus [24]) was “Active”, the Activity (Mus musculus [25]) was “Active” and the Activity (Mus musculus [26]) was “Active”. For the same molecule, the Activity (Mus musculus [27]) was “Active”, the Activity (Mus musculus [28]) was “Active” and the Activity (RAW264.7 [29]) was “Active”. The half-life [30] was 1.97 h, the Activity (Mus musculus [31]) was “Active” and the half-life [32] was 0.67 h. For the same molecule, the Vd [33] was 0.606 L/kg.
